Source: patent US6544767B1, “Cathespin O2 protease” (Axys Pharmaceuticals, Inc., priority 1994, dated 2003)
Like-named read-outs stand apart in the source and are kept apart here. Each block holds one compound with its values, some of them ahead of it. Non-standard residues stand in square brackets, D forms with d. Residues, ends and D or L forms follow the SMILES beside them. *: point of attachment. Sta = CC(C)C[C@H](N)[C@@H](O)CC(=O)O; AMC = Cc1cc(=O)oc2cc(N*)ccc12; Isovaleryl = CC(C)CC(=O)*; Cbz = O=C(OCc1ccccc1)*; CHN2 = [N-]=[N+]=C*

How the values were obtained:
[1] = biological target: T1, recombinant human cathepsin O2 (Homo sapiens, UniProt P43235); experiment: Inhibitor profile, fluorimetric enzyme assay with Z-FR-MCA; format: biochemical; conditions: for inhibition at 0.05 µM: [inhibitor] 0.05 μM
T1 construct: the mature protein spans from position 115 to 329 (215 amino acids); made in house; host or cells: Sf9 insect cells (baculovirus, pVL1392)
T1 sequence (P43235 115-329): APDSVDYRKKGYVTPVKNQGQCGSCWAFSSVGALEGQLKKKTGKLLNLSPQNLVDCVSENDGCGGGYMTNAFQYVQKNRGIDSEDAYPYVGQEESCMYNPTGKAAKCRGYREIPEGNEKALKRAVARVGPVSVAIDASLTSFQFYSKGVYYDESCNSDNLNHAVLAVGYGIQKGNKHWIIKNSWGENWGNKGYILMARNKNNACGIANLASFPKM
Experimental: (§1) Human cathepsin O2 was assayed with a fluorogenic substrate Z-FR-MCA (MCA, methyl coumarylamide) in 100 mM sodium acetate buffer, containing 2.5 mM dithioerythreitol and 2.5 mM EDTA. Initial rates of hydrolysis of the MCA-substrate are monitored in 1-cm cuvettes at 25° C. at an excitation wavelength at 380 nm and an emission wavelength at 450 nm. The concentration of Z-FR-MCA is 5 μM under standard conditions.
The inhibition of cathepsin O2 was assayed at a constant substrate (5 μM Z-FR-MCA) and enzyme concentration (1 nM) in the presence of different inhibitor concentrations in the substrate assay buffer. Cathepsin O2 was preincubated with the inhibitors for 10 min and the reaction was started with substrate. The residual activity was monitored and percent inhibition was calculated from the uninhibited rate.
The efficacy of protease class specific inhibitors to inhibit cathepsin O2 was determined by adding the inhibitor to the purified enzyme in a fluorimetric enzyme assay (described above).

[2] = biological target: T1, recombinant human cathepsin O2; experiment: Hydrolysis of synthetic MCA substrates (kinetic parameters); format: biochemical
Experimental: as §1
The kinetic constants Vmax and Km were obtained by non-linear regression analysis using the program Enzfitter (Leatherbarrow, Enzfitter, Elsevier Biosoft, Cambridge, United Kingdom (1987).
The substrate specificity towards synthetic substrates was determined using the above described substrate assay.
For the calculation of the kinetic parameters kcat and Km the initial rates were obtained typically at 9-11 different substrate concentrations, and the results are fitted to equation (1). The enzyme concentration is determined by active site titration with E-64 (Kinder et al., Biochem. J. 201:367-372 (1982)). [formula]

[3] = test system: [^3H] elastin; experiment: Elastin degradation assay; format: biochemical
Experimental: Elastin (2 mg) was incubated in I ml buffer containing 2.5 mM dithiothreitol, 2.5 mM EDTA and 0.05% Triton X-100 for the cathepsin O2, S and L assays. Aliquots were withdrawn after 10, 20, 30, 50, 90, 120 and 180 min, centrifuged for 1 min at 14,000×g and counted in a 24-well plate containing scintillation fluid with Liquid Scintillation counter (1450 Microbeta Plus, Wallac/Pharmacia). Concentrations of human cathepsins O2, S and L and bovine elastase in the elastin degradation assay were 65 nM, 28 nM, 80 nM and 80 nM, respectively. To determine the pH effect on protease activity the digests were carried out at pH 4.5 and 5.5 (100 mM sodium acetate, 2.5 mM each dithiothreitol and EDTA, 0.05% Triton X-100), and at pH 7.0 (100 mM Tris/HCl, 2.5 mM each of dithiothreitol and EDTA, 0.05% Triton X-100). Pancreatic bovine elastase (Boehringer, Mannheim, Ind.) was assayed under the same conditions except that neither dithiothreitol nor EDTA was added to the incubation mixture.

[4] = from literature; cited from earlier work
[5] = pH activity profile; format: biochemical; conditions: calculated from (pK1 + pK2)/2
Experimental: Initial rates of substrate hydrolysis were monitored as described above. The pH activity profile of human cathepsin O2 was obtained at 1 μM substrate (Z-FR-MCA) concentration ([S]<<Km where the initial rate vo is directly proportional to the kcat/Km value). The following buffers were used for the pH activity profile: 100 mM sodium citrate (pH 2.8-5.6) and 100 mM sodium phosphate (pH 5.8-8.0). All buffers contained 1 mM EDTA and 0.4 M NaCl to minimize the variation in ionic strength. A three protonation model (Khouri et al., Biochem. 30:8929-8936 (1991)) was used for least square regression analysis of the pH activity data. The data were fitted to the following equation.
(kcat/Km)obs=(kcat/Km)/([H^+]/K1+1+K2/[H^+])

[6] = pH stability at 37° C.; format: physicochemical
Experimental: The residual activity was measured in time intervals using the above described fluorimetric substrate assay. The pH stability of cathepsins O2, S and L was studied at three different pH values. Recombinant human cathepsins O2, S and L were incubated at 37° C. in 100 mM sodium acetate buffer, pH 5.5, in 100 mM potassium phosphate buffer, pH 6.5 and in 100 mM Tris/HCl, pH 7.5 containing 5 mM dithiothreitol and 2.5 mM EDTA. Incubating for 0.5, 1, 2 and 4 hours, the activity remaining was determined using 5 μM Z-FR-MCA for cathepsin O2 (100 mM potassium phosphate buffer, pH 6.5) and cathepsin L (100 mM sodium acetate buffer, pH 5.5) and 5 μM Z-VVR-MCA for cathepsin S (100 mM potassium phosphate buffer, pH 6.5).

[7] = test system: denatured soluble calf skin collagen; experiment: Gelatinase activity, SDS-PAGE; format: biochemical
Experimental: FIGS. 9A and 9B depict SDS PAGE of type I collagen (soluble calf skin collagen) after digestion with recombinant human cathepsin O2 and L and bovine trypsin. FIG. 9A: Collagenase activity: Digestion of soluble calf skin collagen at 28° C. and at pH 4.0, 5.0, 5.5, 6.0, 6.5, 7.0 by human cathepsins O2, S and L (each 50 nM) for 12 hours. The reaction was stopped by addition of 10 μM E-64. Untreated soluble collagen was used as standard (S). FIG. 9B: Gelatinase activity: Digestion of denatured soluble calf skin collagen (10 min heated at 70° C.) at 28° C. and at pH 4.0, 5.0, 5.5, 6.0, 6.5, 7.0 by human cathepsin O2 (0.1 nM), cathepsin L (0.2 nM) and human cathepsin S (1 nM). Molecular mass standards are indicated in the left lane.
Soluble calf skin Type I collagen was diluted to 0.4 mg/ml into 100 mM-sodium acetate buffer, pH 4.5, 5.0, 5.5, in 100 mM-potassium phosphate buffer, pH 6.0, 6.5 and 100 mM-Tris/HCl, pH 7.0 containing 2 mM-dithiotreitol/2 mM-EDTA. Human cathepsins O2, S and L and bovine trypsin (Sigma) were incubated at concentrations of 100 nM enzyme concentration for 10 hours at 28° C. To measure the gelatinase activity of cathepsins O2 and S, Type I collagen was heated for 10 min at 70° C. prior to incubation with the proteases. In the presence of 1 nM proteases the reaction mix was incubated for 30 min at 28° C. […]

Compound: Cl.NCCc1ccc(S(=O)(=O)F)cc1 [Befablock]
% inhibition ([1]; [inhibitor] 0.2 mM): 0%

Compound: O=S(=O)(F)Cc1ccccc1 [PMSF]
% inhibition ([1]; [inhibitor] 1 mM): 0%

Compound: C[C@H](NC(=O)[C@H](Cc1ccccc1)NC(=O)OCc1ccccc1)C(=O)C=[N+]=[N-] [Z-FA-CHN2]
% inhibition ([1]; [inhibitor] 0.1 μM): 100%

Compound: [N-]=[N+]=CC(=O)[C@H](Cc1ccccc1)NC(=O)[C@H](Cc1ccccc1)NC(=O)OCc1ccccc1 [Z-FF-CHN2] (Cbz-Phe-Phe-CHN2)
% inhibition ([1]; [inhibitor] 0.1 μM): 90%

Compound: CC(C)C[C@H](NC(=O)[C@@H](NC(=O)N[C@@H](Cc1ccccc1)C(=O)O)[C@@H]1CCN=C(N)N1)C(=O)N[C@H](C=O)Cc1ccccc1 [chymostatin]
inhibition at 0.05 µM [1]: 64%

Compound: O=C(O)CI [iodo acetate]
% inhibition ([1]; [inhibitor] 50 μM): 60%

Compound: CC(=O)N[C@@H](CC(C)C)C(=O)N[C@@H](CC(C)C)C(=O)N[C@H](C=O)CCCNC(=N)N [leupeptin]
inhibition at 0.05 µM [1]: 85%

Compound: Cbz-Val-Arg-{AMC}
Km [2]: 13.1 ± 5.6 µM | kcat [2]: 1.06 ± 0.16 s⁻¹

Compound: cathepsin L: recombinant human cathepsin L provided by Dr. Mort [reference compound]
elastinolytic activity ([3]; pH 4.5): 18 mg/min/μmol enzyme | elastinolytic activity ([3]; pH 5.5): 32 mg/min/μmol enzyme | elastinolytic activity ([3]; pH 7.0): 0 mg/min/μmol enzyme | pK1 of pH activity profile [4]: 4.22 ± 0.28 | pK1′ of pH activity profile [4]: 3.33 ± 0.14 | pK2 of pH activity profile [4]: 6.95 ± 0.09 | pH optimum [5]: 5.6 | Residual activity (%) ([6]; pH 5.5, 37° C., 0.5 hr): 87% | Residual activity (%) ([6]; pH 5.5, 37° C., 1 hr): 78% | Residual activity (%) ([6]; pH 5.5, 37° C., 2 hr): 71% | Residual activity (%) ([6]; pH 5.5, 37° C., 4 hr): 51% | Residual activity (%) ([6]; pH 6.5, 37° C., 0.5 hr): 12% | Residual activity (%) ([6]; pH 6.5, 37° C., 2 hr): 0% | Residual activity (%) ([6]; pH 6.5, 37° C., 4 hr): 0% | Residual activity (%) ([6]; pH 7.5, 37° C., 0.5 hr): 0% | Residual activity (%) ([6]; pH 7.5, 37° C., 1 hr): 0% | Residual activity (%) ([6]; pH 7.5, 37° C., 2 hr): 0% | Residual activity (%) ([6]; pH 7.5, 37° C., 4 hr): 0% | pH range of gelatinase activity [7]: 4.5-5.5

Further lines, results first:

% inhibition ([1]; [inhibitor] 0.1 mM): 0%
Compound: O=c1oc(Cl)c(Cl)c2ccccc12 [DCI]

% inhibition ([1]; [inhibitor] 0.1 μM): 100% | inhibition of enzyme activity ([1]; concentrations above 0.1 μM): completely inhibit
Compound: CC(C)C[C@H](NC(=O)[C@H]1O[C@@H]1C(=O)O)C(=O)NCCCCN=C(N)N [E-64]

% inhibition ([1]; [inhibitor] 4 mM): 0% | effect on the activity of cathepsin O2 ([1]; concentration of 4 mM): No effect | inhibition of cathepsin O2 ([1]; higher concentrations (>5 mM)): partial non-specific inhibition
Compound: O=C(O)CN(CCN(CC(=O)O)CC(=O)O)CC(=O)O [EDTA]

Km [2]: 7.5 ± 3.4 µM | kcat [2]: 0.90 ± 0.20 s⁻¹
Compound: Cc1cc(=O)oc2cc(NC(=O)C(CCCN=C(N)N)NC(=O)C(Cc3ccccc3)NC(=O)OCc3ccccc3)ccc12 (stereo not drawn) [Z-FR-MCA] (Cbz-Phe-Arg-{AMC}; configuration not given here)

Km [2]: 3.8 ± 0.8 µM | kcat [2]: 0.98 ± 0.39 s⁻¹
Compound: Cc1cc(=O)oc2cc(NC(=O)[C@H](CCCN=C(N)N)NC(=O)[C@H](CC(C)C)NC(=O)OCc3ccccc3)ccc12 [Z-LR-MCA]

Km [2]: 23 ± 4 µM | kcat [2]: 0.0005 ± 0.0002 s⁻¹ | substrate quality [2]: very poor substrate
Compound: Cc1cc(=O)oc2cc(NC(=O)[C@H](CCCN=C(N)N)NC(=O)[C@H](CCCN=C(N)N)NC(=O)OCc3ccccc3)ccc12 [Z-RR-MCA] (Cbz-Arg-Arg-{AMC})

inhibition at 0.1 µM ([1]; [inhibitor] 0.1 μM): 100%
Compound: CCCC[C@@H](C=O)NC(=O)[C@H](CC(C)C)NC(=O)OCc1ccccc1 [calpeptin]

inhibition at 0.1 µM ([1]; [inhibitor] 0.1 μM): 0%
Compound: CC(C)CC(=O)N[C@H](C(=O)N[C@H](C(=O)N[C@@H](CC(C)C)[C@@H](O)CC(=O)N[C@@H](C)C(=O)N[C@@H](CC(C)C)[C@@H](O)CC(=O)O)C(C)C)C(C)C [pepstatin] (Isovaleryl-VV[Sta]A[Sta]-OH)

Km [2]: 18.5 ± 1.5 µM | kcat [2]: 0.01 ± 0.004 s⁻¹
Compound: Cbz-Val-Val-Arg-{AMC}

Km [2]: 0.4 ± 0.1 µM | kcat [2]: 0.02 ± 0.008 s⁻¹ | Km ([2]; text value): 0.4 µM
Compound: Z-LLR-MCA
